Measurements taken from patent publication US8603539B2, “Compositions for drug delivery” (Dr. Reddy's Laboratories Limited, priority 2005, dated 2013).

Tested on: New Zealand white rabbits
Experiment: Comparative dermal irritation study (PDII)
Settings: rabbit skin, patch 24 hours; erythema and edema scores at 25, 48 and 72 hours
Experimental: Six male New Zealand white rabbits of age between 10 to 15 months and weight in the range of 2 to 3 Kg were used in the study. […] The hair on the backs of the rabbits was clipped and approximately 0.5 g of Test or Reference or Control 2 was placed on a gauze patch and was applied to the skin site. Separate gauze patches containing Test, Reference and Control 2 were applied on the back. The patches were moistened with 0.5 ml physiological saline after application. 0.5 ml of Control 1 was injected into a fourth gauze patch after applying the patch on the skin. The patches were removed after 24 hours.
The test and control items were categorized based on the Primary Dermal Irritation Index (PDII). The PDII was determined as the ratio of total irritation score (TIS) and total number of observations. The TIS was calculated by adding the subtotal values for erythema and edema. The subtotal values for erythema and edema were separately calculated by adding the irritation scores at 25, 48 and 72 hours post-application. The following scoring criteria were used as described in the literature (S. C. Gad et al., Acute Toxicology Testing: Perspectives and Horizons, The Telford Press, Inc., Caldwell, N.J., 1988):

## CCCCCCCCCCCCOS(=O)(=O)[O-].[Na+] [Control 1, sodium lauryl sulphate]
  PDII (Primary Dermal Irritation Index): 0.44
